Measured values as given in article PMC5802374 (Cell, 2018).
Where “and” joins values, the source holds several entries; their conditions need not be identical. Equal values may be shown once. Read-outs that look alike come from different tables or passages of the source.

Tests used:
MOP [1] = biological target: T1, MOP (Homo sapiens, UniProt P35372); test: biochemical
KOP [2] = biological target: T2, KOP (Homo sapiens, UniProt P41145); test: biochemical
MOP [3] = biological target: T1, MOP; test: Bias factor towards G protein in MOP; type: cell-based; settings: GTPγ[35S] vs BRET arrestin recruitment; DAMGO as reference agonist
MOP [4] = biological target: T1, MOP; test: cAMP inhibition assay; type: cell-based; settings: N = 3
KOP [5] = biological target: T2, KOP; type: cell-based
KOP wt [6] = biological target: T3, KOP wt (Homo sapiens, UniProt P41145); settings: N = 3
MOP [7] = biological target: T1, MOP; settings: N = 3
KOP wt [8] = biological target: T3, KOP wt; test: cell-based
MOP [9] = biological target: T1, MOP; test: cell-based
KOP [10] = biological target: T2, KOP; type: cell-based; remark: listed apart in the source
MOP [11] = biological target: T1, MOP
KOP [12] = biological target: T2, KOP
[13] = biological target: human kappa-opioid receptor (KOP) containing C-terminal Renilla luciferase (RLuc8) (human, UniProt P41145); test: FRET or BRET
KOP [14] = test: Radioligand; type: binding, human; settings: agonist U69,593; KOP+Nb39 vs KOP only

T1 sequence (P35372 whole entry): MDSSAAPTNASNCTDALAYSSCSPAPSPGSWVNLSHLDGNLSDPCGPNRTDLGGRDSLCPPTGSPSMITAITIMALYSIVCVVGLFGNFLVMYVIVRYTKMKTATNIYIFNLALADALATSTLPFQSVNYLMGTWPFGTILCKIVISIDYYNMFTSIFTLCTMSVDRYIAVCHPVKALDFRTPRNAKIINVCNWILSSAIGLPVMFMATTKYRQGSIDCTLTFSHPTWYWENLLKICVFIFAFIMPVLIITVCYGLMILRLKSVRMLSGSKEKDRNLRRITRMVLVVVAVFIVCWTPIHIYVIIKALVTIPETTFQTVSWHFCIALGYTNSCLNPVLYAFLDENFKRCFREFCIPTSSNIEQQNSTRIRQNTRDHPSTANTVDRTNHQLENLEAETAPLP
T2 sequence (P41145 whole entry): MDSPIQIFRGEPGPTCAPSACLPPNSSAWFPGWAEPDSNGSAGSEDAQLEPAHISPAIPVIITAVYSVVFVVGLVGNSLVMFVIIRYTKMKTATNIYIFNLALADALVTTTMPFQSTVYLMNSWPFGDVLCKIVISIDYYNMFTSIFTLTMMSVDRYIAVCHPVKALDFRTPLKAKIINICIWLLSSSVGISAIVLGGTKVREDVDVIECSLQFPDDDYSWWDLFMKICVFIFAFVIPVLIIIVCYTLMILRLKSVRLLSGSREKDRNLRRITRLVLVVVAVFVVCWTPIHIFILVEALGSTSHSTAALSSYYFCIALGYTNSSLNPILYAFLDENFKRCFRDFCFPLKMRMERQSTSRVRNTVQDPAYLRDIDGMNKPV
T3 sequence (P41145 whole entry): as above
Chain of human kappa-opioid receptor (KOP) containing C-terminal Renilla luciferase (RLuc8) (P41145 whole entry): as above

`CN(C(=O)/C=C/c1ccoc1)[C@@H]1CC[C@@]2(O)[C@H]3Cc4ccc(O)c5c4[C@@]2(CCN3CC2CC2)[C@H]1O5` [Nalfurafine, reference compound] was tested, and the Ki (MOP [1]) was 4.2 ± 0.21 nM.

`O=C(N[C@@H]1C=CC2C3Cc4ccc(O)c5c4[C@@]2(CCN3CC2CC2)C1O5)c1cccc(C(F)(F)F)c1` (stereo partly drawn) [MP1113, N-((7R,12bS)-3-(cyclopropylmethyl)-9-hydroxy-2,3,4,4a,7,7a-hexahydro-1H-4,12-methanobenzofuro[3,2-e]isoquinolin-7-yl)-3-(trifluoromethyl)benzamide] gave a Ki (MOP [1]) of 0.24 ± 0.06 nM and a Ki (KOP [2]) of 0.14 ± 0.07 nM.

For `O=C(N[C@@H]1CC[C@@]2(O)[C@H]3Cc4ccc(O)c5c4[C@@]2(CCN3CC2CC2)[C@H]1O5)c1cccc(I)c1` [IBNtxA], the “Bias factor towards G protein in MOP, 10^ΔΔLog(τ/KA)” value (MOP [3]) was 9, the “Emax Gi activation (cAMP inhibition) in MOP” value (MOP [4]) was 99±6 and the EC50 (MOP [4]; read-out: EC50 Gi activation (cAMP inhibition) in MOP) was 0.056 ± 0.012 nM. The “Emax Gi activation (cAMP inhibition) in KOP” value (KOP [5]) was 96±1, the EC50 (KOP [5]; read-out: EC50 Gi activation (cAMP inhibition) in KOP) was 0.002 ± 0.001 nM and the “Emax arrestin recruitment in KOP wt, Figure 5D” value (KOP wt [6]; Figure 5D, comparison with Y312^7.35W) was 112±10. The “Emax arrestin recruitment (Tango) in KOP wt” value (KOP wt [6]; method: normalized to % SalA stimulation) was 95±8 and 113±12, the EC50 (KOP wt [6]; read-out: EC50 arrestin recruitment (Tango) in KOP wt) was 0.032 ± 0.01 nM and the “Emax arrestin recruitment (Tango) in MOP” value (MOP [7]) was 25±6 and 23±4. For the same molecule, the EC50 (MOP [7]; read-out: EC50 arrestin recruitment (Tango) in MOP) was 0.075 nM and 0.1 nM.

With `O=C(N[C@@H]1C=CC2C3Cc4ccc(O)c5c4[C@@]2(CCN3CC2CC2)C1O5)c1ccccc1` (stereo partly drawn) [MP1108, N-((7R,12bS)-3-(cyclopropylmethyl)-9-hydroxy-2,3,4,4a,7,7a-hexahydro-1H-4,12-methanobenzofuro[3,2-e]isoquinolin-7-yl)benzamide] the Ki (MOP [1]) was 0.42 ± 0.06 nM and the Ki (KOP [2]) was 0.42 ± 0.05 nM.

In the case of `O=C(N[C@@H]1C=CC2C3Cc4ccc(O)c5c4[C@@]2(CCN3CC2CC2)C1O5)c1cccc(F)c1` (stereo partly drawn) [MP1114, N-((7R,12bS)-3-(cyclopropylmethyl)-9-hydroxy-2,3,4,4a,7,7a-hexahydro-1H-4,12-methanobenzofuro[3,2-e]isoquinolin-7-yl)-3-fluorobenzamide], the Ki (MOP [1]) is reported as 0.27 ± 0.08 nM and the Ki (KOP [2]) is reported as 0.16 ± 0.07 nM.

Molecule `O=C(N[C@@H]1C=CC2C3Cc4ccc(O)c5c4[C@@]2(CCN3CC2CC2)C1O5)c1cccc(Cl)c1` (stereo partly drawn) [MP1109, 3-Chloro-N-((7R,12bS)-3-(cyclopropylmethyl)-9-hydroxy-2,3,4,4a,7,7a-hexahydro-1H-4,12-methanobenzofuro[3,2-e]isoquinolin-7-yl)benzamide] has a Ki (MOP [1]) of 0.16 ± 0.05 nM and a Ki (KOP [2]) of 0.13 ± 0.03 nM.

Molecule `C=CCN1CC[C@]23c4c5ccc(O)c4OC2[C@H](NC(=O)c2ccc(F)c(I)c2)CC[C@@]3(O)C1C5` (stereo partly drawn) [MP903, N-((4aS,7R,12bS)-3-allyl-4a,9-dihydroxy-2,3,4,4a,5,6,7,7a-octahydro-1H-4,12-methanobenzofuro[3,2-e]isoquinolin-7-yl)-4-fluoro-3-iodobenzamide] has an EC50 (KOP wt [8]) of 0.074 ± 0.012 nM, an Emax (KOP wt [8]; read-out: Emax arrestin recruitment (Tango) in KOP wt) of 108 ± 10% and an EC50 (MOP [9]) of 0.12 ± 0.05 nM. It also gave an Emax (MOP [9]; read-out: Emax arrestin recruitment (Tango) in MOP) of 33 ± 5%.

With `O=C(N[C@@H]1C=CC2C3Cc4ccc(O)c5c4[C@@]2(CCN3CC2CC2)C1O5)c1ccc(I)cc1` (stereo partly drawn) [MP1112, N-((7R,12bS)-3-(cyclopropylmethyl)-9-hydroxy-2,3,4,4a,7,7a-hexahydro-1H-4,12-methanobenzofuro[3,2-e]isoquinolin-7-yl)-4-iodobenzamide] the Ki (MOP [1]) was 0.17 ± 0.03 nM and the Ki (KOP [2]) was 0.12 ± 0.03 nM.

For `CC(C)[C@@H](CN1CC[C@@](C)(c2cccc(O)c2)[C@@H](C)C1)NC(=O)[C@H]1Cc2ccc(O)cc2CN1` [JDTic], the “Nb39 recruitment to KOP (in words)” value (KOP [10]) was “no effect”.

Work on `O=C(N[C@@H]1C=CC2C3Cc4ccc(O)c5c4[C@@]2(CCN3CC2CC2)C1O5)c1cccc(Br)c1` (stereo partly drawn) [MP1110, 3-Bromo-N-((7R,12bS)-3-(cyclopropylmethyl)-9-hydroxy-2,3,4,4a,7,7a-hexahydro-1H-4,12-methanobenzofuro[3,2-e]isoquinolin-7-yl)benzamide] yielded a Ki (MOP [1]) of 0.18 ± 0.04 nM and a Ki (KOP [2]) of 0.12 ± 0.04 nM.

`Cc1cccc(C(=O)N[C@@H]2C=CC3C4Cc5ccc(O)c6c5[C@@]3(CCN4CC3CC3)C2O6)c1` (stereo partly drawn) [MP1115, N-((7R,12bS)-3-(cyclopropylmethyl)-9-hydroxy-2,3,4,4a,7,7a-hexahydro-1H-4,12-methanobenzofuro[3,2-e]isoquinolin-7-yl)-3-methylbenzamide] was tested, and the Ki (MOP [1]) was 0.25 ± 0.06 nM and the Ki (KOP [2]) was 0.18 ± 0.08 nM.

With `CN(C(=O)/C=C/c1ccoc1)[C@@H]1CC[C@@]2(O)[C@H]3Cc4cccc5c4[C@@]2(CCN3CC2CC2)[C@H]1O5` [compound 18] the Ki (MOP [11]) was 533 ± 65 nM and the Ki (KOP [12]) was 1.5 ± 0.05 nM.

For `O=C(N[C@@H]1C=CC2C3Cc4ccc(O)c5c4[C@@]2(CCN3CC2CC2)C1O5)c1ccccc1I` (stereo partly drawn) [MP1111, N-((7R,12bS)-3-(cyclopropylmethyl)-9-hydroxy-2,3,4,4a,7,7a-hexahydro-1H-4,12-methanobenzofuro[3,2-e]isoquinolin-7-yl)-2-iodobenzamide], the Ki (MOP [1]) was 0.2 ± 0.05 nM and the Ki (KOP [2]) was 0.27 ± 0.06 nM.

B1: Nb39 containing a C-terminal YFP (VHH)
VHH: QVQLVESGGGLVRPGGSLRLSCVDSERTSYPMGWFRRAPGKEREFVASITWSGIDPTYADSVADRFTTSRDVANNTLYLQMNSLKHEDTAVYYCAARAPVGQSSSPYDYDYWGQGTQVTVSS
B1 was tested, and the “EC50 of the agonist MP1104 for recruitment of Nb39 to KOP (BRET)” value [13] was 0.12 ± 0.02 nM, the “EC50 of the agonist SalA for recruitment of Nb39 to KOP (BRET)” value [13] was 11.3 nM and 11.2 nM and 10.2 nM and the “EC50 of the agonist U69,593 for recruitment of Nb39 to KOP (BRET)” value [13] was 3.78 ± 0.04 nM. For the same molecule, the “EC50 of the partial agonist diprenorphine for recruitment of Nb39 to KOP (BRET)” value [13] was 5.2 ± 0.03 nM and the “Attenuation of agonist dissociation rate at KOP” value (KOP [14]) was “approximately 6 fold”.
